Measured values from patent US20060069132A1, “Azolecarboxamide herbicides” (priority 2004, published 2006).

Assays:
[1] = system: large crabgrass; assay: Test B pre-/postemergence herbicide test; type: in vivo, Digitaria sanguinalis; conditions: for Plant response rating (0 to 100 scale), Crabgrass, Large: 0 is no effect, 100 is complete control, preemergence
Outline: (§1)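 Plants compared with untreated controls 13–15 days post-treatment and given a visual 0–100 injury score. Applications: preemergence to seeds; postemergence at 1- to 4-leaf (2–18 cm); paddy species flooded, 2-leaf stage. Vehicle non-phytotoxic, surfactant included.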

[2] = system: small flower umbrella sedge; assay: Test B flooded paddy test; type: in vivo, Cyperus difformis; conditions: 1000 g ai/ha, scale 0 to 100 (0 no effect, 100 complete control)
Outline: (§2)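 After treating 2-leaf paddy plants or 2–18 cm postemergence plants (1 to 4 leaves) with formulated chemical, researchers kept them in a greenhouse for 13–15 days. Effects were judged visually versus controls: 0 indicates none, 100 total control.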

[3] = system: pigweed; assay: Test B pre-/postemergence herbicide test; type: in vivo, Amaranthus retroflexus; conditions: for Plant response rating (0 to 100 scale), Pigweed: 0 is no effect, 100 is complete control, preemergence
Outline: as §1

[4] = system: velvetleaf; assay: Test B pre-/postemergence herbicide test; type: in vivo, Abutilon theophrasti; conditions: for Plant response rating (0 to 100 scale), Velvetleaf: 0 is no effect, 100 is complete control, preemergence
Outline: as §1

[5] = system: giant foxtail; assay: Test B pre-/postemergence herbicide test; type: in vivo, Setaria faberi; conditions: for Plant response rating (0 to 100 scale), Foxtail, Giant: 0 is no effect, 100 is complete control, preemergence
Outline: as §1

[6] = system: rice; assay: Test B flooded paddy test; type: in vivo, Oryza sativa; conditions: 1000 g ai/ha, scale 0 to 100 (0 no effect, 100 complete control)
Outline: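 Formulated test chemicals went onto postemergence plants measuring 2 to 18 cm, at one to four leaves. For the paddy assay, species had reached two leaves. Scoring took place 13–15 days later by eye, relative to untreated plants, using 0 for no effect up to 100 for full control.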

[7] = system: barnyardgrass; assay: Test B pre-/postemergence herbicide test; type: in vivo, Echinochloa crus-galli; conditions: for Plant response rating (0 to 100 scale), Barnyardgrass: 0 is no effect, 100 is complete control, preemergence; for Barnyardgrass plant response rating: Postemergence, scale 0 (no effect) to 100 (complete control)
Outline: (§3)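 Flooded paddy rice and barnyardgrass were treated at the 2-leaf stage; upland plantings received compound either on sown seed or on 1- to 4-leaf seedlings. All were kept 13–15 days in a greenhouse and scored visually, 0–100, relative to untreated plants.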

[8] = system: cocklebur; assay: Test B pre-/postemergence herbicide test; type: in vivo, Xanthium strumarium; conditions: for Plant response rating (0 to 100 scale), Cocklebur: 0 is no effect, 100 is complete control, preemergence
Outline: as §3

[9] = system: corn; assay: Test B pre-/postemergence herbicide test; type: in vivo, Zea mays; conditions: for Plant response rating (0 to 100 scale), Corn: 0 is no effect, 100 is complete control, preemergence
Outline: as §1

[10] = system: morningglory; assay: Test B pre-/postemergence herbicide test; type: in vivo, Ipomoea coccinea; conditions: for Plant response rating (0 to 100 scale), Morningglory: 0 is no effect, 100 is complete control, preemergence
Outline: as §3

[11] = system: ducksalad; assay: Test B flooded paddy test; type: in vivo, Heteranthera limosa; conditions: 1000 g ai/ha, scale 0 to 100 (0 no effect, 100 complete control)
Outline: as §2

[12] = system: blackgrass; assay: Test B postemergence herbicide test; type: in vivo, Alopecurus myosuroides
Outline: as §2

[13] = system: barnyardgrass; assay: Test B flooded paddy test; type: in vivo, Echinochloa crus-galli; conditions: 1000 g ai/ha, scale 0 to 100 (0 no effect, 100 complete control)
Outline: as §2

[14] = system: wild oat; assay: Test B postemergence herbicide test; type: in vivo, Avena fatua
Outline: (§4)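 Treated at 2-leaf (paddy) or 1–4-leaf, 2–18 cm (postemergence); greenhouse 13–15 d; visual score vs control, 0 none to 100 complete control; dash = not tested.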

[15] = system: Surinam grass; assay: Test B pre-/postemergence herbicide test; type: in vivo, Urochloa decumbens; conditions: for Plant response rating (0 to 100 scale), Surinam Grass: 0 is no effect, 100 is complete control, preemergence
Outline: as §1

[16] = system: lambsquarters; assay: Test B pre-/postemergence herbicide test; type: in vivo, Chenopodium album; conditions: for Plant response rating (0 to 100 scale), Lambsquarters: 0 is no effect, 100 is complete control, preemergence
Outline: as §1

[17] = system: wheat; assay: Test B postemergence herbicide test; type: in vivo, Triticum aestivum; set-up: key to Wheat plant response rating: 0 = no effect, 100 = complete control
Outline: as §4

[18] = Postemergence, 500 g ai/ha, scale 0 (no effect) to 100 (complete control)
[19] = postemergence, 125 g ai/ha, scale 0 to 100
[20] = 500 g ai/ha, scale 0 to 100, 0 no effect, 100 complete control, preemergence

## CCN(CC)C(=O)c1ccnc(NC(=O)c2nn(C(C)(C)C)nc2C)c1 [Compound 425]
[1]; 125 g ai/ha
  Plant response rating (0 to 100 scale), Crabgrass, Large: 80
[1]; [18]
  Crabgrass, Large plant response rating: 30
[1]; [19]
  Crabgrass, Large plant response rating: 20
[2]
  Sedge, Umbrella plant response rating: 70
[3]; 125 g ai/ha
  Plant response rating (0 to 100 scale), Pigweed: 70
[3]; [18]
  Pigweed plant response rating: 70
[3]; [19]
  Pigweed plant response rating: 50
[4]; 125 g ai/ha
  Plant response rating (0 to 100 scale), Velvetleaf: 20
[4]; [18]
  Velvetleaf plant response rating: 30
[4]; [19]
  Velvetleaf plant response rating: 20
[5]; 125 g ai/ha
  Plant response rating (0 to 100 scale), Foxtail, Giant: 20
[5]; [18]
  Foxtail, Giant plant response rating: 30
[5]; [19]
  Foxtail, Giant plant response rating: 20
[6]
  Rice plant response rating: 20
[7]; 125 g ai/ha
  Plant response rating (0 to 100 scale), Barnyardgrass: 10
  Barnyardgrass plant response rating: 10
[7]; 500 g ai/ha
  Barnyardgrass plant response rating: 20
[8]; 125 g ai/ha
  Plant response rating (0 to 100 scale), Cocklebur: 0
[8]; [18]
  Cocklebur plant response rating: 20
[8]; [19]
  Cocklebur plant response rating: 10
[9]; 125 g ai/ha
  Plant response rating (0 to 100 scale), Corn: 0
[9]; [18]
  Corn plant response rating: 20
[9]; [19]
  Corn plant response rating: 10
[10]; 125 g ai/ha
  Plant response rating (0 to 100 scale), Morningglory: 0
[10]; [18]
  Morningglory plant response rating: 80
[10]; [19]
  Morningglory plant response rating: 70
[11]
  Ducksalad plant response rating: 70
[12]; [18]
  Blackgrass plant response rating: 20
[12]; [19]
  Blackgrass plant response rating: 0
[13]
  Barnyardgrass plant response rating: 30
[14]; [18]
  Oat, Wild plant response rating: 0
[14]; [19]
  Oat, Wild plant response rating: 0
[15]; 125 g ai/ha
  Plant response rating (0 to 100 scale), Surinam Grass: 40
[15]; [18]
  Surinam Grass plant response rating: 20
[15]; [19]
  Surinam Grass plant response rating: 10
[16]; 125 g ai/ha
  Plant response rating (0 to 100 scale), Lambsquarters: 80
[16]; [18]
  Lambsquarters plant response rating: 70
[16]; [19]
  Lambsquarters plant response rating: 60
[17]; [20]
  Wheat plant response rating: 30
[17]; [18]
  Wheat plant response rating: 0
[17]; [19]
  Wheat plant response rating: 0

## CCNC(=O)c1cncc(NC(=O)c2nn(C(C)(C)C)nc2C)c1 [Compound 427]
[1]; 125 g ai/ha
  Plant response rating (0 to 100 scale), Crabgrass, Large: 0
[1]; [18]
  Crabgrass, Large plant response rating: 30
[1]; [19]
  Crabgrass, Large plant response rating: 0
[2]
  Sedge, Umbrella plant response rating: 0
[3]; 125 g ai/ha
  Plant response rating (0 to 100 scale), Pigweed: 30
[3]; [18]
  Pigweed plant response rating: 40
[3]; [19]
  Pigweed plant response rating: 20
[4]; 125 g ai/ha
  Plant response rating (0 to 100 scale), Velvetleaf: 0
[4]; [18]
  Velvetleaf plant response rating: 30
[4]; [19]
  Velvetleaf plant response rating: 10
[5]; 125 g ai/ha
  Plant response rating (0 to 100 scale), Foxtail, Giant: 0
[5]; [18]
  Foxtail, Giant plant response rating: 10
[5]; [19]
  Foxtail, Giant plant response rating: 0
[6]
  Rice plant response rating: 0
[7]; 125 g ai/ha
  Plant response rating (0 to 100 scale), Barnyardgrass: 0
  Barnyardgrass plant response rating: 0
[7]; 500 g ai/ha
  Barnyardgrass plant response rating: 0
[8]; 125 g ai/ha
  Plant response rating (0 to 100 scale), Cocklebur: 0
[8]; [18]
  Cocklebur plant response rating: 10
[8]; [19]
  Cocklebur plant response rating: 10
[9]; 125 g ai/ha
  Plant response rating (0 to 100 scale), Corn: 0
[9]; [18]
  Corn plant response rating: 0
[9]; [19]
  Corn plant response rating: 0
[10]; 125 g ai/ha
  Plant response rating (0 to 100 scale), Morningglory: 0
[10]; [18]
  Morningglory plant response rating: 30
[10]; [19]
  Morningglory plant response rating: 20
[11]
  Ducksalad plant response rating: 0
[12]; [18]
  Blackgrass plant response rating: 20
[12]; [19]
  Blackgrass plant response rating: 0
[13]
  Barnyardgrass plant response rating: 0
[14]; [18]
  Oat, Wild plant response rating: 0
[14]; [19]
  Oat, Wild plant response rating: 0
[15]; 125 g ai/ha
  Plant response rating (0 to 100 scale), Surinam Grass: 0
[15]; [18]
  Surinam Grass plant response rating: 10
[15]; [19]
  Surinam Grass plant response rating: 0
[16]; 125 g ai/ha
  Plant response rating (0 to 100 scale), Lambsquarters: 10
[16]; [18]
  Lambsquarters plant response rating: 40
[16]; [19]
  Lambsquarters plant response rating: 10
[17]; [20]
  Wheat plant response rating: 0
[17]; [18]
  Wheat plant response rating: 0
[17]; [19]
  Wheat plant response rating: 0
